Tests used:
[1] = Temperature dependence of Stokes luminescence intensity of dye in solution; format: physicochemical; conditions: for temperature-sensitive properties of Stokes luminescence: 10 μM dye, emission spectra at different temperatures
Method: (§1) Concentration of dye is 10 μM, and solvent is 150 mM KCl solution, pH 7.5; (d) Stokes emission spectra (excited at 530 nm) of 10 μM RhBME (dissolved in 150 mM KCl solution at pH 7.5) at different temperatures (from bottom to top, 45, 35, 25, 15, 5[…] respectively), and Stokes luminescence intensity is normalized against peak at 25[…].

[2] = Temperature dependence of anti-Stokes luminescence intensity of dye in solution; format: physicochemical; conditions: 10 μM in 150 mM KCl pH 7.5, excited at 633 nm, 5-45 degrees
Method: as §1, with “anti-Stokes” for “Stokes”, “633” for “530”, “Rh101ME” for “RhBME”, “top” for “bottom”, “bottom,” for “top,”
From the spectrogram of Rh101 and derivatives thereof (FIG. 1a), it can be seen that there is no significant difference in spectroscopic characteristics between the compound of formula II (Rh101AM) or the compound of formula IV (Rh101ME) and Rh101.

[3] = literature [2, 3]; cited from earlier work
[4] = literature [2, 3]; cited from earlier work; remark: listed apart in the source

| Compound | temperature-sensitive properties of Stokes luminescence [1] | Stokes luminescence intensity vs temperature [1] | other results |
| --- | --- | --- | --- |
| N#CC1=c2cc3c4c(c2Oc2c1cc1c5c2CCCN5CCC1)CCC[N+]=4CCC3 [Rh800] | does not possess temperature-sensitive properties at a wavelength of less than 700 nm | – | – |
| CCN(CC)c1ccc2c(-c3ccccc3C(=O)OC)c3ccc(N(CC)CC)cc3[o+]c2c1.[Cl-] [RhBME] | – | decreases as the temperature increases | – |
| O=C(O)c1ccccc1C1=c2cc3c4c(c2Oc2c1cc1c5c2CCCN5CCC1)CCC[N+]=4CCC3 [Rh101, rhodamine 101] | does not possess temperature-sensitive properties | – | anti-Stokes luminescence intensity vs temperature [2]: increases as the temperature increases; Anti-Stokes emission intensity vs temperature [3]: enhanced as the temperature increases |
| CCCCCCCCCCCCCCCCOC(=O)c1ccccc1-c1c2ccc(=[N+](CC)CC)cc-2oc2cc(N(CC)CC)ccc12 [RhB-C16] | possesses temperature-sensitive properties | – | – |
| CCN(CC)c1ccc2c(-c3ccccc3C(=O)OCc3ccc(C(=O)Nc4cc5cccnc5c5ncccc45)cc3)c3ccc(=[N+](CC)CC)cc-3oc2c1 [RPA, Rhodamine B-[(1,10-phenanthrolin-5-yl)aminocarbonyl]benzyl ester] | possess temperature-sensitive properties | – | – |
| tetramethylrhodamine methyl ester [TMRM] | possess temperature-sensitive properties | – | – |
| CCN(CC)c1ccc2c(-c3ccccc3C(=O)OCOC(C)=O)c3ccc(=[N+](CC)CC)cc-3oc2c1 [RhBAM] | – | decreases as the temperature increases | – |
| CC(=O)OCOC(=O)c1ccccc1C1=c2cc3c4c(c2Oc2c1cc1c5c2CCCN5CCC1)CCC[N+]=4CCC3 [Rh101AM] | – | does not substantially change as the temperature changes | – |
| N=c1ccc2c(-c3ccccc3C(=O)O)c3ccc(N)cc3oc-2c1 [Rh110] | does not possess temperature-sensitive properties | – | – |
| CCN(CC)c1ccc2c(-c3ccccc3C(=O)O)c3ccc(=[N+](CC)CC)cc-3oc2c1 [RhB, Rhodamine B] | – | – | Stokes emission intensity vs temperature [4]: decreased as the temperature increases |

From US20160376247A1, “NOVEL TEMPERATURE-SENSITIVE FLUORESCENT COMPOUND AND APPLICATION THEREOF” (SHANGHAI INSTITUTES FOR BIOLOGICAL SCIENCES, CHINESE …, priority 2013, published 2016)
